Assay results as given in PubChem BioAssay AID493240 (Broad Institute, 2011).

Test system: SK-MEL-5 viability, ATP luminescence (CellTiter-Glo), 24 h
Assay: SK-MEL-5 parental cell viability loss, dose response, orthogonal assay for MITF inhibitor project, CellTiter-Glo, cherry-picked, set 3 (AID 493240)

SMILES	AC50
Cc1ccc(-c2c[n+](Cc3ccc(Cl)c(Cl)c3)c3n2CCC3)cc1	15.3 µM
CN(C)S(=O)(=O)c1ccc(-c2csc(N/N=C/c3ccc(O)cc3)n2)cc1	17.5 µM
CC[n+]1c(-c2ccccc2)c2cc(N)ccc2c2ccc(N)cc21	15 µM
Cc1ccc(-n2cc(CNCCCn3ccnc3C)c(-c3ccc(F)cc3)n2)cc1	17.6 µM
O=C(CCl)Nc1cccc(-c2cnc3ccccc3n2)c1	17.3 µM
CCn1c(/C=C/Nc2ccccc2)[n+](CC)c2cc(Cl)c(Cl)cc21	28.7 µM
CC[n+]1c(/C=C/N(C)c2ccccc2)sc2ccc(Cl)cc21	19.8 µM
O=C(CNc1cccc2ccccc12)N/N=C/c1ccc([N+](=O)[O-])o1	19.9 µM
COc1ccc(-c2cc(-c3ccccc3)[n+](C)c(-c3ccccc3)c2)cc1	21.2 µM
Cc1ccc(NC2=C(Cl)C(=O)c3ccccc3C2=O)cc1	9.83 µM
O=C1/C(=N\S(=O)(=O)c2cccs2)C([n+]2ccccc2)=C([O-])c2ccccc21	5.27 µM
COc1cc(SC)ccc1C(=O)Nc1nc(C)cs1	28.4 µM
Cc1cc(C)cc(NC(=O)c2ccc([N+](=O)[O-])o2)c1	27.7 µM
CN(C)CCNC(=O)/C(=C/c1ccc(-c2ccc(Cl)cc2)o1)NC(=O)c1ccccc1	20.4 µM
Cc1ccc(C)c(NC(=O)/C(C#N)=C/c2cn(CC(=O)NCc3ccco3)c3ccccc23)c1	15.2 µM
CC1=NNC(=O)/C1=C\c1cn(-c2ccccc2)nc1-c1ccc(F)cc1	15.5 µM
CCOC(=O)c1ccc(NC2=CC(=O)C(=O)c3ccccc32)cc1	14.3 µM
CC1CCC/C=C/C(=O)c2c(O)cc(O)cc2CC(=O)O1 (stereo not given)	31.7 µM
COC1=C(Nc2ccccc2)C(=O)c2ccccc2C1=O	5.11 µM
S=C=Nc1cccc(C2(N3CCCCC3)CCCCC2)c1	20.4 µM
CC1(C)Cc2ccccc2C2=NNC(=O)C2=N1	8.54 µM
CCOC(=O)c1ccc2c(c1)n(CC)c(/C=C/N(C)c1ccccc1)[n+]2CC	13.3 µM
CN1CCC(N(C)C(=O)/C=C/c2cn(-c3ccccc3)nc2-c2cccs2)CC1	20.1 µM
O=C(NC1=C(Nc2ccc(Cl)cc2)C(=O)c2ccccc2C1=O)c1ccccc1	11.2 µM
CCN(Cc1ccccc1)c1ccc(/C=N/N=C(N)N)cc1	17.9 µM
Cc1ccc(-c2nc(C(=O)NCCCN(C)C)cc3c2[nH]c2ccccc23)cc1	18.8 µM
CC(=O)Nc1ccc(S(=O)(=O)NC2=C(N3CCN(C)CC3)C(=O)c3ccccc3C2=O)cc1	22.8 µM
CCCC(=O)N1CCN(c2ccc(NC(=O)c3ccc([N+](=O)[O-])o3)cc2)CC1	24.2 µM

SMILES	AC50
COc1ccc(C(CCNC(C)c2ccccc2)c2ccc(F)cc2)cc1 (stereo not given)	17.6 µM
CCCCN1CCc2c1nc1ccc(Br)cc1c2N	25.6 µM
N=c1n(Cc2ccc(Cl)cc2)c2ccccc2n1CC(O)COc1ccccc1 (stereo not given)	19.1 µM
N#CCc1ccc(NC(=O)/C=C/c2ccc([N+](=O)[O-])o2)cc1	31.2 µM
CC(C)C(CCNC1CCN(C)CC1)c1ccc(Cl)cc1 (stereo not given)	23.1 µM
CC(C)n1cc(/C=C/c2cc[n+](C)cc2)c2ccccc21	23 µM
CCN1c2ccccc2NC2N=C(OC)C(c3ccccc3)C21 (stereo not given)	14 µM
Cc1ccc(C#CC[N+]2(CC#Cc3ccc(C)cc3)CCCCC2)cc1	16 µM
Cc1ccc(C(=O)N/N=C\c2ccc([N+](=O)[O-])s2)cn1	33.9 µM
CCOC(=O)c1c(C)oc2c(F)c(F)c(F)c(F)c2c1=O	22.7 µM
CS(=O)(=O)c1ccc(S(=O)CC(=O)OCc2ccccc2)c([N+](=O)[O-])c1 (stereo not given)	28.3 µM
CC(C)=NOc1cc(NC(=O)CCl)cc([N+](=O)[O-])c1	17.4 µM
COc1ccc2[nH]cc(C(=O)CCl)c2c1	17.4 µM
CCN1CCN(C2=C(NS(=O)(=O)c3ccc(C)cc3)C(=O)c3ccccc3C2=O)CC1	21.9 µM
COc1ccc(-c2c[n+](CC(=O)OC3CC(C)CCC3C(C)C)c3n2CCC3)cc1 (stereo not given)	14.5 µM
CCN1CCN(c2ccc(S(=O)(=O)N3CCCCC3)cc2NC(=O)/C=C/c2cccc(OC)c2OC)CC1	24.7 µM
O=C(Nc1ccc(Cl)c(S(=O)(=O)N2CCOCC2)c1)c1ccc(OCC2CCCO2)cc1 (stereo not given)	9.27 µM
CCN1CCCC1CNC(=O)c1ccc2c(c1)NC(=O)/C(=C\c1ccc(C)cc1)S2 (stereo not given)	18.7 µM
O=C(CCl)Nc1ccc(-c2ccccc2)cc1	21.9 µM
CCN1CCN(C2=C(NS(=O)(=O)c3ccc(Br)cc3)C(=O)c3ccccc3C2=O)CC1	22.9 µM
O=C1/C(=C/c2ccccc2[N+](=O)[O-])COc2ccccc21	34.1 µM
CC(=O)Nc1ccc(Nc2c3ccccc3nc3ccccc23)cc1	16.6 µM
CCOc1c(Br)cc(CNC2CCCCCCC2)cc1OC	16.5 µM
COc1ccc(S(=O)(=O)N(C(C)=O)c2ccc(OC(C)=O)c3ccccc23)cc1[N+](=O)[O-]	17 µM
O=[N+]([O-])c1cccc2c(N3CCCC3)ccnc12	15.3 µM
COc1cc(/C=N/NC(N)=O)c(Br)cc1OCC(=O)Nc1ccccc1C	27.2 µM
CCCCn1c(=N)n(CC(=O)c2ccc(Br)s2)c2ccccc21	18.5 µM
